Laboratory results from patent US9273057B2 (Bristol-Myers Squibb Company, priority 2012, dated 2016).

Molecular target: CK2A1 (CK2α/β) (Homo sapiens, UniProt P68400)
Test: CK2 kinase assay, CK2A1 (CK2α/β)
Assay type: biochemical
Conditions: Table A; read-out: CK2A1 (CK2α/β) (IC50)

Sequence of CK2A1 (CK2α/β) (P68400 whole entry, species assumed): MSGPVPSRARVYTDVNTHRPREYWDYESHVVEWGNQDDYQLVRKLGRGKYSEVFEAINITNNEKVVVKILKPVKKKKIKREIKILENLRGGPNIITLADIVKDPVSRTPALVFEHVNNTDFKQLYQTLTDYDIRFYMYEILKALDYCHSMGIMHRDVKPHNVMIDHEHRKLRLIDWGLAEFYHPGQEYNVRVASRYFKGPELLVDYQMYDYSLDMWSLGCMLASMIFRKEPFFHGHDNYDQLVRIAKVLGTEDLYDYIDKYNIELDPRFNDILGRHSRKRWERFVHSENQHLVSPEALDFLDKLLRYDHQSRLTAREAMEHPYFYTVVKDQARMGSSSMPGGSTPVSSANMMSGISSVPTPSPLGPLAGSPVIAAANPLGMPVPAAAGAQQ
Sequence of CK2A1 (CK2α/β) (P67870 whole entry partner, species assumed): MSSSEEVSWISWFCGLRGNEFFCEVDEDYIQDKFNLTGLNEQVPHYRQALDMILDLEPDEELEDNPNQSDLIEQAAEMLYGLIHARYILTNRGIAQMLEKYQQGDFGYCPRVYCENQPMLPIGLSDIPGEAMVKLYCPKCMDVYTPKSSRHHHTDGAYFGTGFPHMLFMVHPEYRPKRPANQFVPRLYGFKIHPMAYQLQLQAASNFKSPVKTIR

IC50 [nM]	Structure (SMILES)
2.24	CNC(C)CC(C)c1cc(Cl)c(Nc2nc(NC3CC3)c3ncc(C#N)n3n2)cc1C#N (centres unmarked) [Example 733, 2-({2-chloro-5-cyano-4-[4-(methylamino)pentan-2-yl]phenyl}amino)-4-(cyclopropylamino)imidazo [2,1-f][1,2,4]triazine-7-carbonitrile]
0.59	N#Cc1cc(Nc2nc(NC3CC3)c3ncc(C#N)n3n2)c(Cl)c(N2CCN([C@@H]3COC[C@H]3O)CC2)c1 (racemic) [Example 59, (+/−) 2-((2-chloro-5-cyano-3-(4-((3R,4S)-4-hydroxytetrahydro-3-furanyl)-1-piperazinyl)phenyl)amino)-4-(cyclopropylamino) imidazo[2,1-f][1,2,4] triazine-7-carbonitrile]
0.43	N#Cc1cc(Nc2nc(NC3CC3)c3ncc(C#N)n3n2)c(F)c(C2CCN(C3COC3)CC2)c1 [Example 384, 2-((5-cyano-2-fluoro-3-(1-(oxetan-3-yl)piperidin-4-yl)phenyl)amino)-4-(cyclopropylamino)imidazo[2,1-f][1,2,4]triazine-7-carbonitrile]
0.34	CCNc1nc(Nc2cc(C#N)cc(N3CCC(N)CC3)c2Cl)nn2c(C#N)cnc12 [Example 329, 2-((3-(4-aminopiperidin-1-yl)-2-chloro-5-cyanophenyl)amino)-4-(ethylamino)imidazo[2,1-f][1,2,4]triazine-7-carbonitrile]
0.8	COC(=O)N[C@@H]1CCN(c2cc(C#N)cc(Nc3nc(NC4CC4)c4ncc(C#N)n4n3)c2Cl)C[C@H]1OC(=O)CN1CCOCC1 [Example 196, (3R,4R)-1-(2-chloro-5-cyano-3-((7-cyano-4-(cyclopropylamino)imidazo[2,1-f][1,2,4]triazin-2-yl)amino)phenyl)-4-((methoxycarbonyl)amino)-3-piperidinyl 4-morpholinylacetate]
0.62	N#Cc1cc(Nc2nc(NC3CC3)c3ncc(C#N)n3n2)c(Cl)c(N2CCN3C(CCS3(=O)=O)C2)c1 (racemic) [Example 788, (+/−)-2-((2-chloro-5-cyano-3-(1,1-dioxidotetrahydro-2H-isothiazolo[2,3-a]pyrazin-5 (3H)-yl)phenyl)amino)-4-(cyclopropylamino)imidazo[2,1-f][1,2,4]triazine-7-carbonitrile]
0.79	N#Cc1cc(Nc2nc(NC3CC3)c3ncc(C#N)n3n2)c(Cl)c(N2CCN(C(=O)CCN3CCCCC3)CC2)c1 [Example 82, 2-((2-chloro-5-cyano-3-(4-(3-(1-piperidinyl)propanoyl)-1-piperazinyl)phenyl)amino)-4-(cyclopropylamino) imidazo[2,1-f][1,2,4] triazine-7-carbonitrile]
0.44	CC(CCO)c1cc(C#N)cc(Nc2nc(NC3CC3)c3ncc(C#N)n3n2)c1Cl (centres unmarked) [Example 574, 2-((2-chloro-5-cyano-3-(4-hydroxybutan-2-yl)phenyl)amino)-4-(cyclopropylamino)imidazo[2,1-f][1,2,4]triazine-7-carbonitrile]
3.59	N#Cc1cc(Nc2nc(NC3CC3)c3ncc(C#N)n3n2)c(Cl)c(N2CCN(C3CCNC3=O)CC2)c1 (centres unmarked) [Example 581, 2-({2-chloro-5-cyano-3-[4-(2-oxopyrrolidin-3-yl)piperazin-1-yl]phenyl}amino)-4-(cyclopropylamino)imidazo [2,1-f][1,2,4]triazine-7-carbonitrile]
0.78	N#Cc1cc(Nc2nc(NC3CC3)c3ncc(C#N)n3n2)c(Cl)c(C2CCN(C3CNC3)CC2)c1 [Example 318, 2-((3-(1-(azetidin-3-yl)piperidin-4-yl)-2-chloro-5-cyanophenyl)amino)-4-(cyclopropylamino)imidazo[2,1-f][1,2,4]triazine-7-carbonitrile]
4.01	CC(C)(C(N)=O)N1CCC(c2cc(C#N)cc(Nc3nc(NC4CC4)c4ncc(C#N)n4n3)c2Cl)CC1 [Example 641, 2-(4-(2-chloro-5-cyano-3-((7-cyano-4-(cyclopropylamino)imidazo[2,1-f][1,2,4]triazin-2-yl)amino)phenyl)piperidin-1-yl)-2-methylpropanamide]
1.6	CC(C)(C)C(=O)N1CCC(c2cc(C#N)cc(Nc3nc(NC4CC4)c4ncc(C#N)n4n3)c2Cl)CC1 [Example 234, 2-((2-chloro-5-cyano-3-(1-(2,2-dimethylpropanoyl)-4-piperidinyl)phenyl)amino)-4-(cyclopropylamino)imidazo[2,1-f][1,2,4]triazine-7-carbonitrile]
5.35	N#Cc1cc(Nc2nc(NC3CC3)c3ncc(C#N)n3n2)c(Cl)c(N2CCC3(CC2)CN(Cc2ccc[nH]c2=O)C3)c1 [Example 805, 2-((2-chloro-5-cyano-3-(2-((2-oxo-1,2-dihydropyridin-3-yl)methyl)-2,7-diazaspiro[3.5]nonan-7-yl)phenyl)amino)-4-(cyclopropylamino)imidazo[2,1-f][1,2,4]triazine-7-carbonitrile]
0.51	N#Cc1cc(Nc2nc(NC3CC3)c3ncc(C#N)n3n2)c(Cl)c(N2CC[C@@H](NC(=O)OC3CN(C4COC4)C3)[C@H](O)C2)c1 (racemic) [Example 180, (+/−)-1-(oxetan-3-yl)azetidin-3-yl((3R,4R)-1-(2-chloro-5-cyano-3-((7-cyano-4-(cyclopropylamino)imidazo[2,1-f][1,2,4]triazin-2-yl)amino)phenyl)-3-hydroxypiperidin-4-yl)carbamate]
2.3	N#Cc1cnc2c(NC3CC3)nc(Nc3cc(C(F)F)cc(N4CCC(C(=O)NC5COC5)CC4)c3Cl)nn12 [Example 547, 1-(2-chloro-3-((7-cyano-4-(cyclopropylamino)imidazo[2,1-f][1,2,4]triazin-2-yl)amino)-5-(difluoromethyl)phenyl)-N-(oxetan-3-yl)piperidine-4-carboxamide]
1.48	CC(CO)N1CC(N2CCN(c3cc(C#N)cc(Nc4nc(NC5CC5)c5ncc(C#N)n5n4)c3Cl)CC2)C1 (centres unmarked) [Example 608, 2-[(2-chloro-5-cyano-3-{4-[1-(1-hydroxypropan-2-yl)azetidin-3-yl]piperazin-1-yl}phenyl)amino]-4-(cyclopropylamino)imidazo [2,1-f][1,2,4]triazine-7-carbonitrile]
5.23	CCNc1nc(Nc2cc(C#N)cc(C3CCN(C4CN(S(C)(=O)=O)C4)CC3)c2Cl)nn2c(C#N)cnc12 [Example 355, 2-((2-chloro-5-cyano-3-(1-(1-(methylsulfonyl)-3-azetidinyl)-4-piperidinyl)phenyl)amino)-4-(ethylamino)imidazo[2,1-f][1,2,4]triazine-7-carbonitrile]
0.51	CC1(N)CCN(c2cc(C(F)F)cc(Nc3nc(NC4CC4)c4ncc(C#N)n4n3)c2Cl)CC1 [Example 245, 2-((3-(4-amino-4-methyl-1-piperidinyl)-2-chloro-5-(difluoromethyl)phenyl)amino)-4-(cyclopropylamino)imidazo[2,1-f][1,2,4]triazine-7-carbonitrile]
0.51	N#Cc1cc(Nc2nc(NC3CC3)c3ncc(C#N)n3n2)c(Cl)c(N2CCN(CC3COCCN3)CC2)c1 (centres unmarked) [Example 598, 2-({2-chloro-5-cyano-3-[4-(morpholin-3-ylmethyl)piperazin-1-yl]phenyl}amino)-4-(cyclopropylamino)imidazo [2,1-f][1,2,4]triazine-7-carbonitrile]
0.42	N#Cc1cc(Nc2nc(NC3CC3)c3ncc(C#N)n3n2)c(Cl)c(N2CCN(C3COC3)CC2)c1 [Example 105, 2-(2-chloro-5-cyano-3-(4-(oxetan-3-yl)piperazin-1-yl)phenylamino)-4-(cyclopropylamino) imidazo[1,2-f][1,2,4] triazine-7-carbonitrile]
1.01	N#Cc1cc(Nc2nc(NC3CC3)c3ncc(C#N)n3n2)c(Cl)c(N2CCC(NC3(CS(=O)(=O)c4ccccc4)COC3)CC2)c1 (racemic) [Example 113, (+/−) 2-((2-chloro-5-cyano-3-(4-((3-((phenylsulfonyl)methyl)-3-oxetanyl)amino)-1-piperidinyl)phenyl)amino)-4-(cyclopropylamino)imidazo [2,1-f][1,2,4]triazine-7-carbonitrile]
1.82	N#Cc1cc(Nc2nc(NC3CC3)c3ncc(C#N)n3n2)c(Cl)c(N2CCN(C3CN(C(=O)CCn4ccnc4)C3)CC2)c1 [Example 496, 2-{[2-chloro-5-cyano-3-(4-{1-[3-(1H-imidazol-1-yl)propanoyl]azetidin-3-yl}piperazin-1-yl)phenyl]amino}-4-(cyclopropylamino)imidazo[2,1-f][1,2,4]triazine-7-carbonitrile]
7	CCNc1nc(Nc2cc(C#N)cc(N3CC[C@@H](NC(=O)OC)[C@@H](N(C)CC(C)(C)O)C3)c2Cl)nn2c(C#N)cnc12 [Example 771, methyl N-[(3S,4R)-1-(2-chloro-5-cyano-3-{[7-cyano-4-(ethylamino)imidazo[2,1-f][1,2,4]triazin-2-yl]amino}phenyl)-3-[(2-hydroxy-2-methylpropyl)(methyl)amino]piperidin-4-yl] carbamate]
2.87	N#Cc1cc(Nc2nc(NC3CC3)c3ncc(C#N)n3n2)c(Cl)c(N2CC[C@H]3NC(=O)CO[C@@H]3C2)c1 (racemic) [Example 310, (+/−)-2-((2-chloro-5-cyano-3-((4aR,8aR)-2-oxohexahydro-1H-pyrido[3,4-b][1,4]oxazin-6(7H)-yl)phenyl)amino)-4-(cyclopropylamino)imidazo[2,1-f][1,2,4]triazine-7-carbonitrile, 2HCl]
1.81	CC(C)(O)CNCC(O)c1cc(C#N)cc(Nc2nc(NC3CC3)c3ncc(C#N)n3n2)c1Cl (centres unmarked) [Example 691, 2-((2-chloro-5-cyano-3-(1-hydroxy-2-((2-hydroxy-2-methylpropyl)amino)ethyl)phenyl)amino)-4-(cyclopropylamino)imidazo[2,1-f][1,2,4]triazine-7-carbonitrile]
1.31	N#Cc1cc(CNCCN2CCOCC2)c(Cl)c(Nc2nc(NC3CC3)c3ncc(C#N)n3n2)c1 [Example 466, 2-{[2-chloro-5-cyano-3-({[2-(morpholin-4-yl)ethyl]amino}methyl)phenyl]amino}-4-(cyclopropylamino)imidazo[2,1-f][1,2,4]triazine-7-carbonitrile]
